Data from ChEMBL document CHEMBL1135363, “N-acyl-L-phenylalanine derivatives as potent VLA-4 antagonists that mimic a cyclic peptide conformation” (Bioorg Med Chem Lett, 2002).

What was measured:
[1] = molecular target: T1, Integrin alpha-4/beta-1 (Homo sapiens, UniProt P05556+P13612); test: Concentration required to inhibit the VCAM-Very late antigen4 (VLA4) interaction in ELISA cell-based assay; type: functional
[2] = molecular target: T1, Integrin alpha-4/beta-1; test: Concentration required to inhibit the VCAM-Very late antigen4 (VLA4) interaction in Ramos cell-based assay; type: functional

T1 sequence (P05556 whole entry): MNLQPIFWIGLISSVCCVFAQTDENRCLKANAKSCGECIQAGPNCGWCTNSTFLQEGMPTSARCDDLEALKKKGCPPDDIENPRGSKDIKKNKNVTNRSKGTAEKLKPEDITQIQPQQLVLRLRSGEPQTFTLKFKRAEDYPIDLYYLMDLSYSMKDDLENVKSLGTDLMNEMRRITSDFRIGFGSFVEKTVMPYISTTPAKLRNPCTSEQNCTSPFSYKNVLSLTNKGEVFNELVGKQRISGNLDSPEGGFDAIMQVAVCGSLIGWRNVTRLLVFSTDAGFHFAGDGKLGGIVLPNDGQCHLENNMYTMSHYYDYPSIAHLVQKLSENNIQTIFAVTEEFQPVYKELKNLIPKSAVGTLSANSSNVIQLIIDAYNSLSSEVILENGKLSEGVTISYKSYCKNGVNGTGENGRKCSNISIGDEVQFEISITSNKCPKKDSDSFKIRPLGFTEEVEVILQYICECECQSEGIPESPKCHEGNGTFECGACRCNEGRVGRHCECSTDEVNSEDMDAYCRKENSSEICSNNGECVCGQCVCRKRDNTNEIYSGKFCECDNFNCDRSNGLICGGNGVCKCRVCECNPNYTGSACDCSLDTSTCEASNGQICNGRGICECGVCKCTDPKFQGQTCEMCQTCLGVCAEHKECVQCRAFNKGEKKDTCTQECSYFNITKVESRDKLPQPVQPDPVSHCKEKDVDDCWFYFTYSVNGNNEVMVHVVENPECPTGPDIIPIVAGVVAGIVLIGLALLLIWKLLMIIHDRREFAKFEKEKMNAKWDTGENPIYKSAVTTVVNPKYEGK
T1 sequence (P13612 whole entry): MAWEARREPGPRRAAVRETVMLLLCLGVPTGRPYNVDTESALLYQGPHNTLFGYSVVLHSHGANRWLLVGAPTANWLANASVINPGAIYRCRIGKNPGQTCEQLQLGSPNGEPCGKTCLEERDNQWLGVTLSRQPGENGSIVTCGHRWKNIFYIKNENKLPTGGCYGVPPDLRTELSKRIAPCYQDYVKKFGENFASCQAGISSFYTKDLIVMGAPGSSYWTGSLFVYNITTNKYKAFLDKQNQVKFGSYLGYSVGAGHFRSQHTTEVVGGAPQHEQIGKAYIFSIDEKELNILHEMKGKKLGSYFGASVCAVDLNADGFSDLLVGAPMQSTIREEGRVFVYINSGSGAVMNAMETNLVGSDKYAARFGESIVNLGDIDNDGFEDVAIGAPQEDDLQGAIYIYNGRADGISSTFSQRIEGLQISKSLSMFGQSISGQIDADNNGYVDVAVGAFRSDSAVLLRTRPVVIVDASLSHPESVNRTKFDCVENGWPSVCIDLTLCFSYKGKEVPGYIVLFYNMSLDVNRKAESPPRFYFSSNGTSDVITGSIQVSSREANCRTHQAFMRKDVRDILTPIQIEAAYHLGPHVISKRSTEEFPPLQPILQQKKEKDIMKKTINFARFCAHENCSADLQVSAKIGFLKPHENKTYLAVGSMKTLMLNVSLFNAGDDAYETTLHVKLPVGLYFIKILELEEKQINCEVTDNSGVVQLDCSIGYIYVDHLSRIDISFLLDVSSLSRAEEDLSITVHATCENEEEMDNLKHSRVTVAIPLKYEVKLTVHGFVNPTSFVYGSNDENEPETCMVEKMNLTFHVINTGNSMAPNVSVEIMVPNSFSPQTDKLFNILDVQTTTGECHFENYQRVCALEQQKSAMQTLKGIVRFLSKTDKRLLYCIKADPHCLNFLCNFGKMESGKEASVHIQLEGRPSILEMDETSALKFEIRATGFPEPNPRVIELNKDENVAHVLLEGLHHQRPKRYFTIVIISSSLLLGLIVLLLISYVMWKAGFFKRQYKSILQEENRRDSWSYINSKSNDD

Structure (SMILES): O=C(Nc1ccccc1)c1ccc(C[C@H](NC(=O)[C@@H]2CCC(=O)N2Cc2ccccc2)C(=O)O)cc1
- IC50 [1]: 57 nM

Structure (SMILES): O=C(O)[C@H](Cc1ccc(C(=O)N2CCN(C(=O)c3cccc(O)c3)CC2)cc1)NC(=O)[C@@H]1CCC(=O)N1Cc1ccccc1
- IC50 [2]: 470 nM
- IC50 [1]: 3 nM

Structure (SMILES): O=C(O)[C@H](Cc1ccc(C(=O)N2CCN(S(=O)(=O)c3ccccc3)CC2)cc1)NC(=O)[C@@H]1CCC(=O)N1Cc1ccccc1
- IC50 [2]: 2200 nM
- IC50 [1]: 11 nM

Structure (SMILES): CC(=O)N1CCN(C(=O)c2ccc(C[C@H](NC(=O)[C@@H]3CCC(=O)N3Cc3ccccc3)C(=O)O)cc2)CC1
- IC50 [2]: 5500 nM
- IC50 [1]: 7 nM

Structure (SMILES): COc1ccc(CNC(=O)c2ccc(C[C@H](NC(=O)[C@@H]3CCC(=O)N3Cc3ccccc3)C(=O)O)cc2)cc1
- IC50 [1]: 61 nM

Structure (SMILES): O=C(Nc1ccc(C[C@H](NC(=O)[C@H]2CCC(=O)N2Cc2ccccc2)C(=O)O)cc1)c1c(Cl)cccc1Cl
- IC50 [1]: 0.37 nM

Structure (SMILES): C[C@H](NC(=O)c1ccc(C[C@H](NC(=O)[C@@H]2CCC(=O)N2Cc2ccccc2)C(=O)O)cc1)c1ccccc1
- IC50 [1]: 27 nM

Structure (SMILES): O=C(O)[C@H](Cc1cccc(C(=O)N2CCN(C(=O)c3ccccc3)CC2)c1)NC(=O)[C@@H]1CCC(=O)N1Cc1ccccc1
- IC50 [1]: 120 nM

Structure (SMILES): O=C(O)[C@H](Cc1ccc(C(=O)N2CCN(C(=O)c3ccccc3)CC2)cc1)NC(=O)[C@@H]1CCC(=O)N1Cc1ccccc1
- IC50 [2]: 960 nM
- IC50 [1]: 3 nM

Structure (SMILES): COc1ccc(C(=O)N2CCN(C(=O)c3ccc(C[C@H](NC(=O)[C@@H]4CCC(=O)N4Cc4ccccc4)C(=O)O)cc3)CC2)cc1
- IC50 [2]: 320 nM
- IC50 [1]: 4 nM

Structure (SMILES): CCN(CC)C(=O)C(Cc1ccc(O)cc1)NC(=O)c1ccc(C[C@H](NC(=O)[C@@H]2CCC(=O)N2Cc2ccccc2)C(=O)O)cc1 (stereo not given in full)
- IC50 [2]: 550 nM
- IC50 [1]: 5 nM

Structure (SMILES): CCN(CC)C(=O)C(Cc1ccc(O)cc1)NC(=O)c1cccc(C[C@H](NC(=O)[C@@H]2CCC(=O)N2Cc2ccccc2)C(=O)O)c1 (stereo not given in full)
- IC50 [2]: 24400 nM
- IC50 [1]: 240 nM

Structure (SMILES): COc1ccc(S(=O)(=O)N2CCN(C(=O)c3ccc(C[C@H](NC(=O)[C@@H]4CCC(=O)N4Cc4ccccc4)C(=O)O)cc3)CC2)cc1
- IC50 [2]: 9530 nM
- IC50 [1]: 12 nM

Structure (SMILES): CC(=O)N[C@@H](Cc1ccc(O)cc1)C(=O)Nc1ccc(C[C@H](NC(=O)[C@H]2CCC(=O)N2Cc2ccccc2)C(=O)O)cc1
- IC50 [2]: 2100 nM
- IC50 [1]: 6.5 nM

Structure (SMILES): O=C(O)[C@H](Cc1ccc(C(=O)N2CCN(C(=O)c3ccc(O)cc3)CC2)cc1)NC(=O)[C@@H]1CCC(=O)N1Cc1ccccc1
- IC50 [2]: 1700 nM
- IC50 [1]: 3 nM

Structure (SMILES): O=C(O)[C@H](Cc1cccc(C(=O)N2CCN(S(=O)(=O)c3ccccc3)CC2)c1)NC(=O)[C@@H]1CCC(=O)N1Cc1ccccc1
- IC50 [1]: 60 nM

Structure (SMILES): CC(=O)c1ccccc1NC(=O)c1ccc(C[C@H](NC(=O)[C@@H]2CCC(=O)N2Cc2ccccc2)C(=O)O)cc1
- IC50 [2]: 940 nM
- IC50 [1]: 4 nM

Structure (SMILES): COc1ccc(S(=O)(=O)N2CCN(C(=O)c3cccc(C[C@H](NC(=O)[C@@H]4CCC(=O)N4Cc4ccccc4)C(=O)O)c3)CC2)cc1
- IC50 [2]: 7800 nM
- IC50 [1]: 73 nM
